Assay [1] deals with human androgen receptor (AR). As to the kind of experiment: Dose-response of the 3α-diol substrate for AR transactivation in PALM cells (PC-3 Androgen receptor Luciferase MMTV). Type of assay: cell-based. The source says: (§1) The cDNA coding for human DHRS9 was sub-cloned into a pcDNA3.1/zeo expression vector. This was then transfected into a cell line denoted PALM, standing for PC-3 Androgen receptor Luciferase MMTV. This cell line originates from PC-3 cells which have been stably co-transfected by the expression vector coding for the human androgen receptor (pSG5-puro-h androgen receptor (AR)) and by the reporter gene vector coding for luciferase (pMMTV-neo-Luc), the promoter for which has AR response elements.
(§2) The activity of conversion of 3α-diol to DHT by DHRS9 can thus be followed via AR transactivation.

Another assay concerns the target T1, human DHRS9 (Homo sapiens, UniProt Q9BPW9).
T1 construct: expressed in transfected cells; host or cells: PALM cells (PC-3 stably co-transfected with human androgen receptor and pMMTV-neo-Luc)
As to the kind of experiment: Cellular model of oxidation of 3α-diol by DHRS9: inhibition of 3α-diol conversion to DHT, followed via AR transactivation (luciferase reporter) in DHRS9-transfected PALM cells. The following applies: read-out: inhibition of 3α-diol conversion. Type of assay: cell-based.
Text: as §1, §2
A general note: In a reporter assay the amount or activity of a reporter protein is the signal.

For orientation: AC50 means the concentration giving half of the maximal activity seen. By inhibition is commonly meant how much of the control response was suppressed.

Read-outs that look alike come from different tables or passages of the source.

T1 sequence (Q9BPW9 18-319): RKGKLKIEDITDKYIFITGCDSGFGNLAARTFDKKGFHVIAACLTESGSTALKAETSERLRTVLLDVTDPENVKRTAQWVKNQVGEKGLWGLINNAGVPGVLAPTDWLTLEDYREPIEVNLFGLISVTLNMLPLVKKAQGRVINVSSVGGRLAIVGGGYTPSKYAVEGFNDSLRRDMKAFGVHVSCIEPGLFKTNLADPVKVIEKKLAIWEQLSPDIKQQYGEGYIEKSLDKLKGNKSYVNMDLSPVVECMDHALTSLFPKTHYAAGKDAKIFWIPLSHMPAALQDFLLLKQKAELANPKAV

In the case of `C[C@]12CC[C@@H](O)C[C@@H]1CC[C@@H]1[C@@H]2CC[C@]2(C)[C@@H](O)CC[C@@H]12` [3α-diol, 3α-androstanediol], the AC50 is 19 nM in assay [1] (cells transfected with DHRS9) and 189 nM in assay [1] (non-transfected cells).

With `CC1(C)[C@@H](OC(=O)CCC(=O)O)CC[C@]2(C)[C@H]3C(=O)C=C4[C@@H]5C[C@@](C)(C(=O)O)CC[C@]5(C)CC[C@@]4(C)[C@]3(C)CC[C@@H]12` [carbenoxolone, Carbenoxolone], the inhibition at 100 µM at human DHRS9 (concentration of 100 μM, PALM cells transfected with DHRS9) amounted to 35%.

Regarding `CC(C)=CCCC(C)=CC=O` (racemic) [citral, Citral], the inhibition at 100 µM on human DHRS9 stood at 86%.
